From patent publication US20260297092A1, “PYRAZOLOPYRIMIDINE DERIVATIVES AS INHIBITORS OF NLRP3” (Takeda Pharmaceutical Company Limited, priority 2023, published 2026)

What was measured:
[1] = tested on: NLRP3 inflammasome (IL-1β production in THP-1 cells); assay: IL-1β TR-FRET Assay (percentage of inhibition at 300 nM, 6 μM or 10 μM); type: cell-based, human; settings: Homo sapiens, LPS priming, ATP activation; for inhibition at 0.3 µM: THP-1, 300 nM, read-out: IL-1β inhibitory rate at 300 nM (%)
Outline: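 THP-1 cells were differentiated with 25 ng/mL IFN-γ for 24 h, primed with 50 ng/mL LPS in serum-free medium for 24 h, then given compound for 30 min before 20 mM ATP for 2 h. Supernatant IL-1β was measured by HTRF after 16-24 h at room temperature. Inhibition was normalized between DMSO (high) and 3 μM MCC-950 (low).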

[2] = tested on: TNF-α (NF-κB pathway, THP-1 cells); assay: TNF-α Assay (IC50); type: cell-based, human; settings: Homo sapiens, 600 ng/mL LPS, 3 hours
Outline: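 THP-1 cells differentiated to macrophages with 25 ng/mL IFN for 24 h, plated 40,000/well in serum-free medium, preincubated with compounds 30 min at 37 °C, then stimulated with 600 ng/mL LPS for 3 h. Supernatant TNF-α measured by ELISA; IC50 from four-parameter logistic fit, 100% inhibition defined by TPCA-1.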

| SMILES | IC50 [2] | inhibition at 0.3 µM [1] | inhibition at 10 µM ([1]; THP-1, 10 μM, read-out: IL-1β inhibitory rate at 10 μM (%)) |
| --- | --- | --- | --- |
| CCOc1nc2nn(-c3c(C)cc(C)cc3C#N)cc2c(=O)[nH]1 [Example 152, 2-(6-ethoxy-4-oxo-4,5-dihydro-2H-pyrazolo[3,4-d]pyrimidin-2-yl)-3,5-dimethylbenzonitrile] | > 30 µM | 92% | – |
| CCOc1nc2nn(-c3c(Br)cc(C4CC4)cc3COC)cc2c(=O)[nH]1 [Example 155, 2-[2-bromo-4-cyclopropyl-6-(methoxymethyl)phenyl]-6-ethoxy-2,5-dihydro-4H-pyrazolo[3,4-d]pyrimidin-4-one] | > 30 µM | 99% | – |
| CCOc1nc2nn(-c3c(F)cc(OC(F)F)cc3C(F)F)cc2c(=O)[nH]1 [Example 163, 2-[4-(difluoromethoxy)-2-(difluoromethyl)-6-fluorophenyl]-6-ethoxy-2,5-dihydro-4H-pyrazolo[3,4-d]pyrimidin-4-one] | > 30 µM | 97% | – |
| CCOc1nc2nn(-c3c(C)cc(C4CC4)cc3COC)cc2c(=O)[nH]1 [Example 164, 2-[4-cyclopropyl-2-(methoxymethyl)-6-methylphenyl]-6-ethoxy-2,5-dihydro-4H-pyrazolo[3,4-d]pyrimidin-4-one] | > 30 µM | 95% | – |
| COCc1nc2nn(-c3c(C)cc(C4CC4)cc3C)cc2c(=O)[nH]1 [Example 166, 2-(4-cyclopropyl-2,6-dimethylphenyl)-6-(methoxymethyl)-2,5-dihydro-4H-pyrazolo[3,4-d]pyrimidin-4-one] | > 30 µM | 103% | – |
| Cc1cc(C2CC2)cc(C)c1-n1cc2c(=O)[nH]c(C3CC3)nc2n1 [Example 167, 6-cyclopropyl-2-(4-cyclopropyl-2,6-dimethylphenyl)-2,5-dihydro-4H-pyrazolo[3,4-d]pyrimidin-4-one] | > 30 µM | 98% | – |
| Cc1cc(C2CC2)cc(C)c1-n1cc2c(=O)[nH]c(-c3ccncn3)nc2n1 [Example 171, 2-(4-cyclopropyl-2,6-dimethylphenyl)-6-(pyrimidin-4-yl)-2,5-dihydro-4H-pyrazolo[3,4-d]pyrimidin-4-one] | > 30 µM | 100% | – |
| O=c1[nH]c(C2CC2)nc2nn(-c3c(F)cc(C4CC4)cc3C(F)F)cc12 [Example 173, 6-cyclopropyl-2-[4-cyclopropyl-2-(difluoromethyl)-6-fluorophenyl]-2,5-dihydro-4H-pyrazolo[3,4-d]pyrimidin-4-one] | > 30 µM | 108% | – |
| COCCOc1nc2nn(-c3c(C)cc(Br)cc3C)cc2c(=O)[nH]1 [Example 175, 2-(4-bromo-2,6-dimethylphenyl)-6-(2-methoxyethoxy)-2,5-dihydro-4H-pyrazolo[3,4-d]pyrimidin-4-one] | > 30 µM | 112% | – |
| Cc1ccc(-n2cc3c(=O)[nH]c(OC4CCOCC4)nc3n2)c(C)c1 [Example 176, 2-(2,4-dimethylphenyl)-6-[(oxan-4-yl)oxy]-2,5-dihydro-4H-pyrazolo[3,4-d]pyrimidin-4-one] | > 30 µM | 101% | – |
| CCOc1nc2nn(-c3c(C)cc(C4CC4)cc3C#N)cc2c(=O)[nH]1 [Example 179, 5-cyclo propyl-2-(6-ethoxy-4-oxo-4,5-dihydro-2H-pyrazolo[3,4-d]pyrimidin-2-yl)-3-methylbenzonitrile] | > 30 µM | 102% | – |
| COCCOc1nc2nn(-c3c(F)cc(C4CC4)cc3C(F)F)cc2c(=O)[nH]1 [Example 186, 2-[4-cyclopropyl-2-(difluoromethyl)-6-fluorophenyl]-6-(2-methoxyethoxy)-2,5-dihydro-4H-pyrazolo[3,4-d]pyrimidin-4-one] | > 30 µM | 100% | – |
| Cc1cc(C2CC2)cc(C)c1-n1cc2c(=O)[nH]c(C3(F)CC3)nc2n1 [Example 190, 2-(4-cyclopropyl-2,6-dimethylphenyl)-6-(1-fluorocyclopropyl)-2,5-dihydro-4H-pyrazolo[3,4-d]pyrimidin-4-one] | > 30 µM | 97% | – |
| Cc1cc(C2CC2)cc(C)c1-n1cc2c(=O)[nH]c([C@H]3CC3(F)F)nc2n1 [Example 191, 2-(4-cyclopropyl-2,6-dimethylphenyl)-6-(2,2-difluorocyclopropyl)-2,5-dihydro-4H-pyrazolo[3,4-d]pyrimidin-4-one] | > 30 µM | 109% | – |
| COc1nc2nn(-c3c(F)cc(C4CC4)cc3C(F)F)cc2c(=O)[nH]1 [Example 193, 2-[4-cyclopropyl-2-(difluoromethyl)-6-fluorophenyl]-6-methoxy-2,5-dihydro-4H-pyrazolo[3,4-d]pyrimidin-4-one] | > 30 µM | 101% | – |

The next lines start with results.

| IC50 [2] | SMILES | inhibition at 0.3 µM [1] | inhibition at 10 µM ([1]; THP-1, 10 μM, read-out: IL-1β inhibitory rate at 10 μM (%)) |
| --- | --- | --- | --- |
| > 30 µM | CCOc1nc2nn(-c3c(C)cc(OC(F)F)cc3C)cc2c(=O)[nH]1 [Example 147, 2-[4-(difluoromethoxy)-2,6-dimethylphenyl]-6-ethoxy-2,5-dihydro-4H-pyrazolo[3,4-d]pyrimidin-4-one] | 103% | – |
| > 30 µM | CCOc1nc2nn(-c3ncc(Br)cc3C(F)(F)F)cc2c(=O)[nH]1 [Example 148, 2-[5-bromo-3-(trifluoromethyl)pyridin-2-yl]-6-ethoxy-2,5-dihydro-4H-pyrazolo[3,4-d]pyrimidin-4-one] | 96% | – |
| > 30 µM | CCOc1nc2nn(-c3ncc(Br)cc3C)cc2c(=O)[nH]1 [Example 150, 2-(5-bromo-3-methylpyridin-2-yl)-6-ethoxy-2,5-dihydro-4H-pyrazolo[3,4-d]pyrimidin-4-one] | 70% | – |
| > 30 µM | CCOc1nc2nn(-c3c(C)cc(C4CC4)cc3Br)cc2c(=O)[nH]1 [Example 151, 2-(2-bromo-4-cyclopropyl-6-methylphenyl)-6-ethoxy-2,5-dihydro-4H-pyrazolo[3,4-d]pyrimidin-4-one] | 98% | – |
| > 30 µM | CCOc1nc2nn(-c3ncc(C4CC4)cc3C(F)(F)F)cc2c(=O)[nH]1 [Example 153, 2-[5-cyclopropyl-3-(trifluoromethyl)pyridin-2-y]-6-ethoxy-2,5-dihydro-4H-pyrazolo[3,4-d]pyrimidin-4-one] | 101% | – |
| > 30 µM | CCOc1nc2nn(-c3ncc(C4CC4)cc3C)cc2c(=O)[nH]1 [Example 154, 2-(5-cyclopropyl-3-methylpyridin-2-yl)-6-ethoxy-2,5-dihydro-4H-pyrazolo[3,4-d]pyrimidin-4-one] | 93% | – |
| > 30 µM | CCOc1nc2nn(-c3c(C)cc(CC(F)(F)F)cc3F)cc2c(=O)[nH]1 [Example 156, 6-ethoxy-2-[2-fluoro-6-methyl-4-(2,2,2-trifluoroethyl)phenyl]-2,5-dihydro-4H-pyrazolo[3,4-d]pyrimidin-4-one] | – | 97% |
| > 30 µM | CCOc1nc2nn(-c3c(F)cc(OC)cc3Br)cc2c(=O)[nH]1 [Example 157, 2-(2-bromo-6-fluoro-4-methoxyphenyl)-6-ethoxy-2,5-dihydro-4H-pyrazolo[3,4-d]pyrimidin-4-one] | 102% | – |
| > 30 µM | CCOc1cc(F)c(-n2cc3c(=O)[nH]c(OCC)nc3n2)c(Br)c1 [Example 158, 2-(2-bromo-4-ethoxy-6-fluorophenyl)-6-ethoxy-2,5-dihydro-4H-pyrazolo [3,4-d]pyrimidin-4-one] | 99% | – |
| > 30 µM | CCOc1nc2nn(-c3c(C)cc(C)cc3C(F)F)cc2c(=O)[nH]1 [Example 159, 2-[2-(difluoromethyl)-4,6-dimethylphenyl]-6-ethoxy-2,5-dihydro-4H-pyrazolo[3,4-d]pyrimidin-4-one] | 103% | – |
| > 30 µM | CCOc1cc(C)c(-n2cc3c(=O)[nH]c(OCC)nc3n2)c(F)c1 [Example 160, 6-ethoxy-2-(4-ethoxy-2-fluoro-6-methylphenyl)-2,5-dihydro-4H-pyrazolo[3,4-d]pyrimidin-4-one] | 84% | – |
| > 30 µM | CCOc1nc2nn(-c3ncc(Br)cc3Br)cc2c(=O)[nH]1 [Example 161, 2-(3,5-dibromopyridin-2-yl)-6-ethoxy-2,5-dihydro-4H-pyrazolo[3,4-d]pyrimidin-4-one] | 97% | – |
| > 30 µM | CCOc1nc2nn(-c3c(F)cc(OC)cc3CC(F)(F)F)cc2c(=O)[nH]1 [Example 162, 6-ethoxy-2-[2-fluoro-4-methoxy-6-(2,2,2-trifluoroethyl)phenyl]-2,5-dihydro-4H-pyrazolo[3,4-d]pyrimidin-4-one] | 97% | – |
| > 30 µM | CCOc1nc2nn(-c3c(C)cc(OC(F)F)cc3CC(F)(F)F)cc2c(=O)[nH]1 [Example 168, 2-[4-(difluoromethoxy)-2-methyl-6-(2,2,2-trifluoroethyl)phenyl]-6-ethoxy-2,5-dihydro-4H-pyrazolo[3,4-d]pyrimidin-4-one] | 98% | – |
| > 30 µM | CCOc1nc2nn(-c3c(C)cc(C4(F)CC4)cc3F)cc2c(=O)[nH]1 [Example 182, 6-ethoxy-2-[2-fluoro-4-(1-fluorocyclopropyl)-6-methylphenyl]-2,5-dihydro-4H-pyrazolo[3,4-d]pyrimidin-4-one] | 102% | – |
| > 30 µM | CCOc1nc2nn(-c3c(Br)cc(OC(F)F)cc3C(F)F)cc2c(=O)[nH]1 [Example 184, 2-[2-bromo-4-(difluoromethoxy)-6-(difluoromethyl)phenyl]-6-ethoxy-2,5-dihydro-4H-pyrazolo[3,4-d]pyrimidin-4-one] | 94% | – |
